As usually defined, the IC50 is the concentration that gives 50% inhibition.

This is an account of results in patent US5208223A, “Phosphocholine derivative inhibitors of phospholipase A2” (American Cyanamid Company, priority 1992, dated 1993).

The structures appear in SMILES notation. Counter-ions that a name gives are not always drawn. Like-named read-outs stand apart in the source and are kept apart here.

For assay [1], the target named is T1, porcine pancreatic PLA2 (Sus scrofa, UniProt P00592).
T1 construct: purchased Sigma
Kind of assay: PLA2 assay: in vitro porcine pancreatic phospholipase A2, preincubation of drug+enzyme, substrate 2 nM. Format: biochemical. To be noted: preincubation, subs. con. 2; for IC50: read-out: IC50 (converted). On the procedure:
(§1) Phospholipase A2 activity was measured by a radiochemical assay in which labeled synthetic phosphatidylcholine substrate is converted by porcine pancreatic PLA2 to free radiolabeled arachidonate and lyso PC. Radiolabeled arachidonate is extracted from the reaction mixture and separated from unreacted substrate by column chromatography or TLC. Radioactivity (cpm) in samples is quantitated by liquid scintillation counting. Specific details are as follows:
(§2) Labeled substrate(1-stearyl-2-^3 H-arachidonylphosphatidylcholine; Amersham, sp. act. 84 (uCi/mmole, 0.025 to 0.2 uCi/assay tube and unlabeled substrates (Avanti), in sufficient quantity to give 20,000 cpm to 50,000 cpm and 10 μM to 1,000 μM final concentration/assay tube are dried under a stream of nitrogen. The PLA2 and mPLA2 assays utilized a […] substrate concentration. The mHPLA2 and HPLA2 assays (vida infra) utilized a 10 μM substrate concentration and the SmPLA2 assay utilized a substrate concentration ranging from 100 to 1000 μm. The substrate is then redissolved in 0.1M tris-HCl buffer, pH 9.0 containing 10 mM CaCl2 and 10 mM Na taurocholate detergent. The mixture is sonicated in a Kontes Sonifier to yield a homogeneous dispersion. The "mixed" micellar substrate is clear. An aliquot is reserved for a cpm count (total substrate). The total reaction volume is 500 μL; siliconized glassware or plasticware is used throughout. Enzyme (Sigma, sp. act.>690 U/mg protein and preferably 900 U/mg protein) is diluted 1:750 or 1:1000 in 0.1M tris-HCl buffer, pH 9.0 (without Ca^++ and detergent). Enzyme dilution depends on substrate concentration and required enzyme concentration.
(§3) The substrate in buffer is kept on ice until the reaction is started. The reaction is started by adding 10 μL of diluted enzyme solution to 490 μL of micellar substrate solution. Samples are incubated in a 37° C. water bath for 15 minutes with gentle mixing. The reaction is terminated by the addition of 100 μL of 1M fresh trichloroacetic acid (TCA) solution and chilling the tubes on ice for 30 minutes.
(§4) Samples (600 μL) are extracted with 3 ml CHCl3 /MeOH (2:1) for thin layer chromatography or in hexane/ether (9:1) for column chromatography. The phases are separated by gentle centrifugation at 700 rpm×5'. The organic phase is recovered.
(§5) Labeled arachidonate extracted with CHCl3 /MeOH is separated on silica gel G TLC plates (Analtech). Twenty μL of a 2 mg/ml internal standard solution of arachidonic acid (Sigma) is combined with 2-3 ml of the organic phase. The entire mixture is dried under nitrogen and redissolved in 50 μL of CHCl3 /MeOH (2:1). A 20 μL sample is counted in 10 ml of Beckman Redi-solv HP and spotted on silica gel G plates. The solvent system used to develop the plate is CHCl3 /MeOH/13.5N NH3 /H2 O (70:30:4:1). Plates are developed in a glass chamber for 1-11/2 hours, air dried, and the spots visualized in an iodine vapor chamber. Standards of phosphatidylcholine, lyso PC, and arachidonic acid (Sigma) are made as 2 mg/ml stocks in CHCl3 /MeOH (2:1) and spotted on plates. Spots corresponding to arachidonate and phospholipid are scraped and counted in 10 ml Beckman Redi-Solv HP scintillation fluid.
(§6) Samples are extracted with hexane/ether and the upper organic phase recovered. An aliquot is applied to a Silicar CC4 (Malincrodt) column. Columns are prepared using 1 ml of a 1:1 slurry of silicar CC4 in hexane/ether in a Pasteur pipet (approx. 2 cm height). Columns are rinsed with 500 μL of hexane/ether before adding the sample (300-600 μL) to the column. Columns are eluted with a total of 6 ml of hexane/ether. The 6 ml sample is counted in 10 ml of Beckman Redi-Solv HP scintillation fluid.
or the phospholipase A2 assay, compounds are prepared as 1 mg/ml stock solutions in MeOH and diluted appropriately in PBS.

Assay [2] concerns the target T1, porcine pancreatic PLA2. Kind of assay: MHPLA2 assay: in vitro porcine pancreatic phospholipase A2, mixed micelle design, [s]=10 μm. Format: biochemical. To be noted: subs. con. 10. On the procedure:
as §1, §2, §3, §4, §5, §6
or the phospholipase A2 assay, compounds are prepared as 1 mg/ml stock solutions in MeOH and diluted appropriately in PBS. […]

The mark [3] stands for this setting: dose 10 μ/ml, read-out: % Inh. Avg.

T1 sequence (P00592 23-146): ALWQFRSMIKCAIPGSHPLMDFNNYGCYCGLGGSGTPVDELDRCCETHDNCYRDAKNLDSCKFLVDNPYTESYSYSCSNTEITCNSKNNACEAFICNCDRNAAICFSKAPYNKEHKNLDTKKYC

As to `C=C(CCCCCCCCCCCCCCCC)CC(COCCCCCCCCCCCCCCCC)COP(=O)([O-])OCC[N+](C)(C)C` (centres unmarked) [4-Hydroxy-N,N,N-trimethyl-7-(2-methyleneoctadecyl)-3,5,9-trioxa-4-phosphaoentacosan-1-aminium, hydroxide, inner salt, 4-oxide], the inhibition at 10 µg/mL at porcine pancreatic PLA2 [1] (dose 10 μ/ml, read-out: % Inh.) worked out at 59%; on porcine pancreatic PLA2 [1] (setting [3]) it was 62%. On porcine pancreatic PLA2 [1] (dose 20 μ/ml, read-out: % Inh.), the inhibition at 20 µg/mL came out at 52%. For the same compound, the IC50 on porcine pancreatic PLA2 [1] was 5.2 µM.
The corresponding values for `CCCCCCCCCCCCCCCCOCC(COP(=O)([O-])OCC[N+](C)(C)C)CC(C)(O)CCCCCCCCCCCCCCCC` (centres unmarked) [4-Hydroxy-7-(2-hydroxy-2-methyloctadecyl)-N,N,N-trimethyl-3,5,9-trioxa-4-phosphapentacosan-1-aminium, hydroxide, inner salt, 4-oxide] are 65%, 64%, 66% and 7.89 µM.
As for `CCCCCCCCCCCCCCCCOCC(COP(=O)([O-])OCC[N+](C)(C)C)OP(=O)(O)OCCCCCCCCCCCCCCCC` (centres unmarked) [3,5,8,10-Tetraoxa-4,9-diphosphahexacosan-1-aminium, 7-[(hexa] [3,5,8,10-Tetraoxa-4,9-diphosphahexacosan-1-aminium, 7-[(hexadecyloxy)methyl]-4,9-dihydroxy-N,N,N-trimethyl-, hydroxide, 4-inner salt), 4,9-dioxide], the “% Inh.” value at porcine pancreatic PLA2 [2] (dose 10 μ/ml) and on porcine pancreatic PLA2 [2] (dose 25 μ/ml) was “STIM” each time.
Turning to `CCCCCCCCCCCCCCCCOC[C@@H](COP(=O)([O-])OCC[N+](C)(C)C)OP(=O)(OC)OCCCCCCCCCCCCCCCC` (single isomer, unassigned), the inhibition at 25 µg/mL at porcine pancreatic PLA2 [1] (dose 25 μ/ml, read-out: % Inh.) was determined as 91%. Also, the IC50 at porcine pancreatic PLA2 [1] was 4.12 µM.
`CCCCCCCCCCCCCCCCOP(=O)(OC)OCCOP(=O)(O)OCCBr` (centres unmarked) [2-[[(2-Bromoethoxy)hydroxyphosphinyl]oxy]ethyl hexadecyl phosphoric acid, methyl ester]: at porcine pancreatic PLA2 [1] (setting [3]), the inhibition at 10 µg/mL is 21%.
In the case of `CCCCCCCCCCCCCCCCOC[C@H](COP(=O)([O-])OCC[N+](C)(C)C)OP(=O)(OC)OCCCCCCCCCCCCCCCC` (single isomer, unassigned) [3,5,8,10-Tetraoxa-4,9-diphosphahexacosan-1-aminium, 7-[(hexa], the “% Inh. Avg.” value on porcine pancreatic PLA2 [1] (dose 20 μ/ml) amounted to 28%.
Take `CCCCCCCCCCCCCCCCOC[C@H](COP(=O)([O-])OCC[N+](C)(C)C)OP(=O)(OC)OCCCCCCCCCCCCCCCC` (single isomer, unassigned): the inhibition at 10 µg/mL on porcine pancreatic PLA2 [1] (setting [3]) worked out at 22%. In addition, the inhibition at 20 µg/mL on porcine pancreatic PLA2 [1] (dose 20 μ/ml, read-out: % Inh. Avg.) was 34%. For the same compound, the IC50 at porcine pancreatic PLA2 [1] was 17.1 µM.
For `CCCCCCCCCCCCCCCCOCC(COP(=O)([O-])OCC[N+](C)(C)C)OP(=O)(OC)OCCCCC` (single isomer, unassigned) [3,5,8,10-Tetraoxa-4,9-diphosphapentadecan-1-aminium, 7-[(hexadecyloxy)methyl]-4-hydroxy-9-methoxy-N,N,N-trimethyl-, hydroxide, 4-(inner salt), 4,9-dioxide, less polar isomer], at porcine pancreatic PLA2 [1] (dose 10 μ/ml, read-out: % Inh.), the inhibition at 10 µg/mL was 76%. The inhibition at 20 µg/mL at porcine pancreatic PLA2 [1] (dose 20 μ/ml, read-out: % Inh.) was determined as 83%. The IC50 at porcine pancreatic PLA2 [1] is 8.05 µM.
For the compound `CCCCCCCCCCCCCCCCOCC(COP(=O)([O-])OCC[N+](C)(C)C)CC(O)CCCCCCCCCCCCCCCC` (single isomer, unassigned) [4-Hydroxy-7-(2-hydroxyoctadecyl)-N,N,N-trimethyl-3,5,9-trioxa-4-phosphapentacosan-1-aminium, hydroxide, inner salt, 4-oxide isomer], at porcine pancreatic PLA2 [1], the half-inhibitory concentration (IC50) is 2.32 µM.
Take `CCCCCCCCCCCCCCCCOP(=O)(O)OCCOP(=O)([O-])OCC[N+](C)(C)C` [3,9-Dihydroxy-N,N,N-trimethyl-3,5,8,10-tetraoxa-4,9-diphosphahexacosan-1-aminium, hydroxide, 4-(inner salt) 4,9-dioxide]: the inhibition at 10 µg/mL on porcine pancreatic PLA2 [1] (setting [3]) turned out to be 20%.
On to `CCCCCCCCCCCCCCCCOCC(COP(=O)([O-])OCC[N+](C)(C)C)CC(=O)CCCCCCCCCCCCCCCC` (centres unmarked) [4-Hydroxy-N,N,N-trimethyl-7-(2-oxooctadecyl)-3,5,9-trioxa-4-phosphapentacosan-1-aminium, hydroxide inner salt, 4 oxide], for which the inhibition at 10 µg/mL at porcine pancreatic PLA2 [1] (dose 10 μ/ml, read-out: % Inh.) came to 59%; on porcine pancreatic PLA2 [1] (setting [3]), 60%. Moreover, the inhibition at 20 µg/mL on porcine pancreatic PLA2 [1] (dose 20 μ/ml, read-out: % Inh.) was 62%. For the same compound, the IC50 at porcine pancreatic PLA2 [1] is 7.92 µM.
Consider `CCCCCCCCCCCCCCCCOCC(COP(=O)([O-])OCC[N+](C)(C)C)CC1(CCCCCCCCCCCCCCCC)CO1` (centres unmarked) [7-[(2-Hexadecyloxiranyl)methyl]-4-hydroxy-N,N,N-trimethyl-3,5,9-trioxa-4-phosphapentacosan-1-aminium, hydroxide, inner salt, 4-oxide], for which, at porcine pancreatic PLA2 [1] (dose 10 μ/ml, read-out: % Inh.), the inhibition at 10 µg/mL came to 78%. Moreover, the inhibition at 20 µg/mL on porcine pancreatic PLA2 [1] (dose 20 μ/ml, read-out: % Inh.) came out at 75%. Also, the IC50 on porcine pancreatic PLA2 [1] is 2.41 µM.
In the case of `CCCCCCCCCCCCCCCCOCC(CC=O)COP(=O)([O-])OCC[N+](C)(C)C` (centres unmarked) [4-Hydroxy-N,N,N-trimethyl-7-(2-oxoethyl)-3,5,9-trioxa-4-phosphapentacosan-1-aminium, hydroxide, inner salt, 4-oxide], the inhibition at 10 µg/mL at porcine pancreatic PLA2 [1] (dose 10 μ/ml, read-out: % Inh.) was found to be 47%; at porcine pancreatic PLA2 [1] (setting [3]) it was 43%. On porcine pancreatic PLA2 [1] (dose 20 μ/ml, read-out: % Inh.), the inhibition at 20 µg/mL turned out to be 62%. Also, the IC50 on porcine pancreatic PLA2 [1] was 26 µM.
Turning to `CCCCCCCCCCCCCCCCOCC(COP(=O)([O-])OCC[N+](C)(C)C)CC(O)CCCCCCCCCCCCCCCC` (single isomer, unassigned) [4-Hydroxy-7-(2-hydroxyoctadecyl)-N,N,N-trimethyl-3,5,9-trioxa-4-phosphapentacosan-1-aminium, hydroxide, inner salt, 4-oxide], at porcine pancreatic PLA2 [1] (dose 10 μ/ml, read-out: % Inh.), the inhibition at 10 µg/mL was found to be 80%. Further, on porcine pancreatic PLA2 [1] (dose 20 μ/ml, read-out: % Inh.), the inhibition at 20 µg/mL amounted to 80%. Moreover, at porcine pancreatic PLA2 [1], the 50% inhibitory concentration (IC50) was 2.18 µM.
Turning to `CCCCCCCCCCCCCCCCOCC(COP(=O)([O-])OCC[N+](C)(C)C)CC(O)CCCCCCCCCCCCCCCC` (single isomer, unassigned) [4-Hydroxy-7-(2-hydroxyoctadecyl)-N,N,N-trimethyl-3,5,9-triox] [4-Hydroxy-7-(2-hydroxyoctadecyl)-N,N,N-trimethyl-3,5,9-trioxa-4-phosphapentacosan-1-aminium, hydroxide, inner salt, 4-oxide isomer], at porcine pancreatic PLA2 [1] (dose 10 μ/ml), the “% Inh.” value was 80%.
As for `CCCCCCCCCCCCCCCCOCC(COP(=O)([O-])OCC[N+](C)(C)C)OP(=O)(OC)OCCCCCCCCCCCCCCCC` (centres unmarked) [3,5,8,10-Tetraoxa-4,9-diphosphahexacosan-1-aminium, 7-[(hexa] [3,5,8,10-Tetraoxa-4,9-diphosphahexacosan-1-aminium, 7-[(hexadecyloxy)methyl]-4-hydroxy-9-methoxy-N,N,N-trimethyl-, hydroxide, inner salt, 4,9-dioxide], the figures for the “% Inh. Avg.” value on porcine pancreatic PLA2 [1] (dose 10 μ/ml), on porcine pancreatic PLA2 [1] (dose 25 μ/ml) and on porcine pancreatic PLA2 [1] (dose 50 μ/ml) were 30%, 75% and 77%, respectively.
With `CCCCCCCCCCCCCCCCCCOP(=O)(O)OCCOP(=O)([O-])OCC[N+](C)(C)C` [4,9-Dihydroxy-N,N,N-trimethyl-3,5,8,10-tetraoxa-4,9-diphosphaoctacosan-1-aminium, hydroxide, 4-(inner salt), 4,9-dioxide], the inhibition at 10 µg/mL on porcine pancreatic PLA2 [1] (setting [3]) was 40%.
